Test results published in patent publication US7312188B2, “Peptide derivatives having β-secretase inhibitory activity” (priority 2003, dated 2007).
Numbered stars: 1 amine (or outer) side, 2 acyl side, 3 side chain; on linkers, the order of the positions; unused ones are H or OH. Square brackets hold non-standard residues; d marks the D form. Peptide text beside a SMILES is read from it. * marks the point of attachment. ξ: configuration not given here. β3hPhe(2R-OH) = O=C([C@H](O)[C@H](Cc1ccccc1)N[*:1])[*:2]; X2 = O=C([C@H](O)[C@H](CSc1ccccc1)N[*:1])[*:2]; X3 = CC(C)C[C@H](N[*:1])[C@@H](O)C(=O)[*:2]; Ala(4-thiazolyl) = N[C@@H](Cc1cscn1)C(=O)O; Benzoyl(3-COOH) = O=C(O)c1cccc(C(=O)*)c1; Thz(5,5-Me2) = CC1(C)SCN[C@@H]1C(=O)O; Oxalyl = O=C(C(=O)[*:2])[*:1]; Tle = CC(C)(C)[C@H](N)C(=O)O; 4Amb = NCc1ccc(C(=O)O)cc1; 3Abz = Nc1cccc(C(=O)O)c1; 4Abz = Nc1ccc(C(=O)O)cc1; Orn = NCCC[C@H](N)C(=O)O; ξE = NC(CCC(=O)O)C(=O)O; 2Abz = Nc1ccccc1C(=O)O; Dap = NC[C@H](N)C(=O)O; ξPip = O=C(O)C1CCCCN1; Aib = CC(C)(N)C(=O)O; X4 = CCOC(=O)C(=O)*

Target: T1, recombinant human BACE-1 (rhBACE-1) (Homo sapiens, UniProt P56817)
T1 construct: expressed as only an extracellular region (amino acid 1-460 residues) of recombinant human β-secretase; His tag (C); purchased R&D systems (Minneapolis, Minn.); host or cells: murine myeloma cell line NS0
Test: BACE1 inhibitory activity, reverse phase HPLC quantitation of N-terminal fragment of fluorogenic substrate
Assay type: biochemical
Settings: 1 μL of inhibitor solution in DMSO (100 μM) in 50 μL reaction; MES buffer pH 5.0; 37° C., 60 minutes
Excerpt: Experiment Regarding Measurement of BACE1 Inhibitory Activity
Enzyme Used in Measurement
As an enzyme having β-secretase activity, recombinant human BACE-1 (rhBACE-1) purchased from R&D systems (Minneapolis, Minn.) was used. rhBACE-1 is expressed as only an extracellular region (amino acid 1-460 residues) of recombinant human β-secretase, with a His tag at its carboxyl terminal in murine myeloma cell line, NS0. Purified secreted rhBACE1 is a mixture of a pro entity (about 75 kDa) and a mature entity (about 72 kDa).
Assessment of Enzyme Inhibitory Activity
Enzyme inhibitory activity of an inhibitor was assessed by quantitating an N-terminal fragment produced aftercleaving the substrate with BACE1 by reverse HPLC using (7-methoxycoumarin-4-yl)acetyl-[…]2,4-dinitrophenyl)-Arg-Arg-NH2 purchased from Peptide Institute (Osaka, Japan) as a substrate for BACE1. To 40 μL of 62.5 mM 2-(N-morpholino)ethansulfonic acid (MES)-CH3COOH—NaOH buffer (pH 5.0), were added 1 μL of a solution of an inhibitor diluted with DMSO (100 μM), 4 μL of rhBACE-1 (6.25 ng/μL), and 5 μL of an aqueous solution (50% DMSO) of 250 μM substrate (7-methoxycoumarin-4-yl)acetyl-[…]2,4-dinitrophenyl)-Arg-Arg-NH2 to initiate an enzyme reaction. After incubation at 37° C. for 60 minutes, 20 μL of 20% trichloroacetic acid was added to stop the reaction. And, inhibition % was calculated by measuring a fluorescent intensity of the N-terminal fragment (Ex, 328 nm; Em, 393 nm) using reverse phase HPLC (linear gradient of MeCN in aqueous TFA; flow rate, 1.0 mL/min).
BACE1 Inhibitory Activity
Enzyme inhibitory activity of an inhibitor was assessed by quantitating a N-terminal fragment produced after cleavage of a substrate with BACE1 by reverse phase HPLC using (7-methoxycoumarin-4-yl)acetyl-[…]2,4-dinitrophenyl)-Arg-Arg-NH2 purchased from Peptide Institute (Osaka, Japan) as a substrate for BACE1. Recombinant human BACE-1 purchased from R&D systems (Minneapolis, Minn.) was used. To 40 μL of 62.5 mM 2-(N-morpholino)ethansulfonic acid (MES)-CH3COOH—NaOH buffer (pH 5.0), were added 1 μL of a solution of an inhibitor diluted with DMSO (100 μM), 4 μL of BACE1 (6.25 ng/μL), and 5 μL of an aqueous solution (50% DMSO) of 250 μM substrate (7-methoxycoumarin-4-yl)acetyl-[…]2,4-dinitrophenyl)-Arg-Arg-NH2 to initiate an enzyme reaction. After incubation at 37° C. for 60 minutes, 20 μL of 20% trichloroacetic acid was added to stop a reaction. Inhibition % was calculated by measuring a fluorescent intensity of the N-terminal fragment (Ex, 328 nm; Em, 393 nm) using reverse phase HPLC (linear gradient of MeCN in aqueous TFA; flow rate, 1.0 mL/min).

T1 sequence (P56817 22-460 limits assumed): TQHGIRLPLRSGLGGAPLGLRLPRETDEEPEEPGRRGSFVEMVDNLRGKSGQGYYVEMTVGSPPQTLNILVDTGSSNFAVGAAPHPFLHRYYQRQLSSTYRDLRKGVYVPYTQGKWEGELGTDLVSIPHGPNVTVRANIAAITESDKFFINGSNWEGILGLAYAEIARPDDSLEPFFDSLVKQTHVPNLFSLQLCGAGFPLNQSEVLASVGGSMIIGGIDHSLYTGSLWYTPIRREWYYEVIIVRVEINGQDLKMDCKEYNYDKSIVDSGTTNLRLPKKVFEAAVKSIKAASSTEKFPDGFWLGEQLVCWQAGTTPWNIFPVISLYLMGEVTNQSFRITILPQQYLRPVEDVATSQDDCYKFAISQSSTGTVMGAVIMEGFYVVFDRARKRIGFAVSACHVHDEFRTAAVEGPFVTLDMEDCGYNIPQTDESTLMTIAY

SMILES	inhibition at 2 µM [%]	inhibition at 100 µM (stock) [%]
CC(C)C[C@H](NC(=O)[C@@H](NC(=O)[C@@H](N)CCC(=O)O)C(C)C)C(=O)N[C@@H](CSc1ccccc1)[C@@H](O)C(=O)N[C@@H](CC(=O)O)C(=O)N[C@@H](C)C(=O)N[C@@H](CCC(=O)O)C(=O)N[C@@H](Cc1ccccc1)C(=O)O [Example 82] (H-EVL[X2]DAEF-OH)	81.8	
CC(C)C[C@H](NC(=O)[C@@H](NC(=O)[C@@H](N)CCC(=O)O)C(C)C)C(=O)N[C@@H](Cc1ccccc1)[C@@H](O)C(=O)Nc1ccc(Cl)c(C(=O)O)c1 [Example 83]	80.1	
CC(C)C[C@H](NC(=O)[C@@H](NC(=O)[C@@H](N)CNC(=O)c1cccc(C(=O)O)c1)C(C)C)C(=O)N[C@@H](Cc1ccccc1)[C@@H](O)C(=O)N[C@@H](CC(=O)O)C(=O)N[C@@H](C)C(=O)N[C@@H](CCC(=O)O)C(=O)O [Example 84] (H-[Dap](Benzoyl(3-COOH))VL[β3hPhe(2R-OH)]DAE-OH)	79.1	
CC(C)C[C@H](NC(=O)[C@@H](NC(=O)[C@H](CN)NC(=O)C(=O)O)C(C)C)C(=O)N[C@@H](Cc1ccccc1)[C@@H](O)C(=O)N[C@@H](CC(=O)O)C(=O)N[C@@H](C)C(=O)N[C@@H](CCC(=O)O)C(=O)O [Example 85] (Oxalyl-[Dap]VL[β3hPhe(2R-OH)]DAE-OH)	75.2	
CC(C)C[C@H](NC(=O)[C@@H](NC(=O)[C@@H](N)CCC(=O)O)C(C)C)C(=O)N[C@@H](Cc1ccccc1)[C@@H](O)C(=O)N[C@@H](CC(=O)O)C(=O)N[C@H](C(=O)N[C@@H](CCC(=O)O)C(=O)N[C@@H](Cc1ccccc1)C(=O)O)C(C)(C)C [Example 86] (H-EVL[β3hPhe(2R-OH)]D[Tle]EF-OH)	75	
CC(C)C[C@H](NC(=O)[C@@H](NC(=O)[C@@H](N)CCC(=O)O)C(C)C)C(=O)N[C@@H](Cc1ccccc1)[C@@H](O)C(=O)N[C@@H](CC(=O)O)C(=O)N[C@@H](C)C(=O)Nc1ccccc1C(=O)O [Example 87] (H-EVL[β3hPhe(2R-OH)]DA[2Abz]-OH)		72.2
CC(C)C[C@H](NC(=O)[C@@H](NC(=O)[C@@H](N)CCC(=O)O)C(C)C)C(=O)N[C@@H](Cc1ccccc1)[C@@H](O)C(=O)N[C@@H](CC(=O)O)C(=O)N1CCCCC1C(=O)O (stereo partly drawn) [Example 88] (H-EVL[β3hPhe(2R-OH)]D[ξPip]-OH)	70.4	
CC(C)C[C@H](NC(=O)[C@@H](NC(=O)[C@@H](N)CCC(=O)O)C(C)C)C(=O)N[C@@H](Cc1ccccc1)[C@@H](O)C(=O)Nc1ccc(CC(=O)O)cc1 [Example 89]	69.8	
CC(C)C[C@H](NC(=O)[C@@H](NC(=O)[C@@H](N)CCC(=O)O)C(C)C)C(=O)N[C@@H](CSc1ccccc1)[C@@H](O)C(=O)N[C@@H](CC(=O)O)C(=O)O [Example 90] (H-EVL[X2]D-OH)	69	
CC(C)C[C@H](NC(=O)[C@@H](NC(=O)[C@@H](N)CCC(=O)O)C(C)C)C(=O)N[C@@H](Cc1ccccc1)[C@@H](O)C(=O)N[C@@H](CC(=O)O)C(=O)NC(C)(C)C(=O)N[C@@H](CCC(=O)O)C(=O)O [Example 91] (H-EVL[β3hPhe(2R-OH)]D[Aib]E-OH)	68.9	
CC(C)C[C@H](NC(=O)[C@@H](NC(=O)[C@@H](N)CCC(=O)O)C(C)C)C(=O)N[C@@H](Cc1ccccc1)[C@@H](O)C(=O)N[C@@H](CC(=O)O)C(=O)N[C@@H](C)C(=O)Nc1cccc(C(=O)O)c1 [Example 92] (H-EVL[β3hPhe(2R-OH)]DA[3Abz]-OH)	65.4	
CC(C)C[C@H](NC(=O)[C@@H](NC(=O)[C@@H](N)CCC(=O)O)C(C)C)C(=O)N[C@@H](Cc1ccccc1)[C@@H](O)C(=O)N[C@@H](CC(=O)O)C(=O)N[C@@H](C)C(=O)Nc1ccc(C(=O)O)cc1 [Example 93] (H-EVL[β3hPhe(2R-OH)]DA[4Abz]-OH)	64.8	
CCOC(=O)C(=O)NC[C@H](N)C(=O)N[C@H](C(=O)N[C@@H](CC(C)C)C(=O)N[C@@H](Cc1ccccc1)[C@@H](O)C(=O)N[C@@H](CC(=O)O)C(=O)N[C@@H](C)C(=O)N[C@@H](CCC(=O)O)C(=O)O)C(C)C [Example 95] (H-[Dap](X4)VL[β3hPhe(2R-OH)]DAE-OH)	61.7	
CC(C)C[C@H](NC(=O)[C@@H](NC(=O)[C@@H](N)CCC(=O)O)C(C)C)C(=O)N[C@@H](Cc1ccccc1)[C@@H](O)C(=O)N[C@H](C(=O)N[C@@H](C)C(=O)N[C@@H](CCC(=O)O)C(=O)N[C@@H](Cc1ccccc1)C(=O)O)C(C)C [Example 96] (H-EVL[β3hPhe(2R-OH)]VAEF-OH)	59.2	
CC(C)C[C@H](NC(=O)[C@@H](NC(=O)[C@@H](N)CCC(=O)O)C(C)C)C(=O)N[C@@H](CC(C)C)[C@@H](O)C(=O)N[C@@H](CC(=O)O)C(=O)N[C@@H](C)C(=O)N[C@@H](CCC(=O)O)C(=O)N[C@@H](Cc1ccccc1)C(=O)O [Example 97] (H-EVL[X3]DAEF-OH)	59.1	
CC(C)C[C@H](NC(=O)[C@@H](NC(=O)[C@@H](N)CCC(=O)O)C(C)C)C(=O)N[C@@H](Cc1ccccc1)[C@@H](O)C(=O)N[C@@H](CC(=O)O)C(=O)N[C@@H](C)C(=O)N[C@@H](CC(=O)O)C(=O)O [Example 98] (H-EVL[β3hPhe(2R-OH)]DAD-OH)	58.4	
CC(C)[C@H](NC(=O)[C@@H](N)CCC(=O)O)C(=O)N[C@@H](Cc1cscn1)C(=O)N[C@@H](Cc1ccccc1)[C@@H](O)C(=O)N[C@@H](CC(=O)O)C(=O)N[C@@H](C)C(=O)N[C@@H](CCC(=O)O)C(=O)N[C@@H](Cc1ccccc1)C(=O)O [Example 99] (H-EV[Ala(4-thiazolyl)][β3hPhe(2R-OH)]DAEF-OH)	58	
CC(C)C[C@H](NC(=O)[C@@H](NC(=O)[C@@H](N)CCC(=O)O)C(C)C)C(=O)N[C@@H](Cc1ccccc1)[C@@H](O)C(=O)N[C@H](CC(=O)O)C(=O)O [Example 100] (H-EVL[β3hPhe(2R-OH)][dD]-OH)	56.9	
CC(C)C[C@H](NC(=O)[C@@H](NC(=O)[C@@H](N)CCCNC(=O)C(=O)O)C(C)C)C(=O)N[C@@H](Cc1ccccc1)[C@@H](O)C(=O)N[C@@H](CC(=O)O)C(=O)N[C@@H](C)C(=O)N[C@@H](CCC(=O)O)C(=O)O [Example 101] (H-[Orn](Oxalyl)VL[β3hPhe(2R-OH)]DAE-OH)	56.1	
CC(C)C[C@H](NC(=O)[C@@H](NC(=O)[C@@H](N)CCC(=O)O)C(C)C)C(=O)N[C@@H](Cc1ccccc1)[C@@H](O)C(=O)N[C@@H](CC(=O)O)C(=O)NCc1ccc(C(=O)O)cc1 [Example 103] (H-EVL[β3hPhe(2R-OH)]D[4Amb]-OH)	54.6	
CCOC(=O)C(=O)NC[C@H](N)C(=O)N[C@H](C(=O)N[C@@H](CC(C)C)C(=O)N[C@@H](Cc1ccccc1)[C@@H](O)C(=O)Nc1cc(C(=O)OC)cc(C(=O)OC)c1)C(C)C [Example 104]	54.4	
CC(C)C[C@H](NC(=O)[C@@H](NC(=O)[C@@H](N)CCC(=O)O)C(C)C)C(=O)N[C@@H](Cc1ccccc1)[C@@H](O)C(=O)N1CSC(C)(C)[C@H]1C(=O)N[C@@H](C)C(=O)NC(CCC(=O)O)C(=O)N[C@@H](Cc1ccccc1)C(=O)O (stereo partly drawn) [Example 106] (H-EVL[β3hPhe(2R-OH)][Thz(5,5-Me2)]A[ξE]F-OH)	53	
CC(C)C[C@H](NC(=O)[C@@H](NC(=O)[C@@H](N)CCC(=O)O)C(C)C)C(=O)N[C@@H](Cc1ccccc1)[C@@H](O)C(=O)N[C@@H](CC(C)C)C(=O)N[C@@H](C)C(=O)N[C@@H](CCC(=O)O)C(=O)N[C@@H](Cc1ccccc1)C(=O)O [Example 107] (H-EVL[β3hPhe(2R-OH)]LAEF-OH)	52.1	
CC(C)C[C@H](NC(=O)[C@@H](NC(=O)[C@@H](N)CCC(=O)O)C(C)C)C(=O)N[C@@H](Cc1ccccc1)[C@@H](O)C(=O)N[C@@H](CC(=O)O)C(=O)N[C@@H](C)C(=O)NCc1ccc(C(=O)O)cc1 [Example 108] (H-EVL[β3hPhe(2R-OH)]DA[4Amb]-OH)	51.3	
CC(C)[C@H](NC(=O)[C@@H](NC(=O)[C@@H](N)CCC(=O)O)C(C)C)C(=O)N[C@@H](Cc1ccccc1)[C@@H](O)C(=O)N[C@@H](CC(=O)O)C(=O)N[C@@H](C)C(=O)N[C@@H](CCC(=O)O)C(=O)N[C@@H](Cc1ccccc1)C(=O)O [Example 123] (H-EVV[β3hPhe(2R-OH)]DAEF-OH)	61.4	
